The values that follow are results of earlier work, collected in US20160165928A1, “METHODS OF REDUCING METHANE EMISSION DERIVED FROM RUMINAL FERMENTATION WHILE SIMULTANEOUSLY REDUCING RISK OF NITRATE INTOXICATION” (Grasp Indústria e Comércio Ltda., priority 2011, published 2016).

The test system of data set [1] is methane produced by rumen fermentation. The note with it: in vivo.
Data set [2] relates to ruminal accumulation of nitrite. Particulars: in vivo.

Take `O=[N+]([O-])[O-].[K+]` [potassium nitrate]: the “methane emission in ruminants” value in data set [1] is “reduced methane emission”.
For the compound `O=[N+]([O-])[O-].O=[N+]([O-])[O-].[Ca+2]` [calcium nitrate], the “methane emission in ruminants” value in data set [1] was “reduced methane emission”.
With `O=S(=O)([O-])[O-].[Na+].[Na+]` [sodium sulfate], the “ruminal accumulation of nitrite” value in data set [2] is on record as “reduction of ruminal accumulation of nitrite”.
On to `O=S(=O)([O-])[O-].[Mg+2]` [magnesium sulfate], for which, in data set [2], the “ruminal accumulation of nitrite” value is on record as “reduction of ruminal accumulation of nitrite”.
Take `O=[N+]([O-])[O-].[Na+]` [sodium nitrate]: the “methane emission in ruminants” value in data set [1] was “reduced methane emission”.
`[Na+].[Na+].[O]=[W](=[O])([O-])[O-]` [sodium tungstate]: the “inhibition of nitrate reductase” value with nitrate reductase is given as “inhibit nitrate reductase”.
As for `O=S(=O)([O-])[O-].[Cu+2]` [copper sulfate], in data set [2], the intoxication risks result is listed as “minimization of intoxication risks” and the “ruminal accumulation of nitrite” value is listed as “reduction of ruminal accumulation of nitrite”.
